Active and inactive are the calls of the source.
Columns and labels:
[1] = inhibitors of HIV Env-driven cell fusion, dose response, cherry-pick (AID 652057); format: functional, cell-based
[2] = off-target signal loss in HeLa-CEM21 co-culture – HeLa F-luc CTL cells, cherry-picked, counter-screen for HIV-1 Env fusion inhibitor project, dose response (AID 652040); format: functional, cell-based;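 also: potency for signal decrease marking cytotoxic or nonspecific inhibition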
[3] = ZM109 Env clade C HIV-1 fusion inhibitors, dose response, HeLa effector, CEM target cells, luciferase, cherry-pick (AID 652058); format: functional, cell-based
[4] = inhibitors of clade B AD8 Env fusion, dose response, cell-based, cherry-pick (AID 652062); format: functional;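 also: luciferase signal from cell-cell fusion driven by HIV-1 clade B AD8 Env; potency is for inhibitors of fusion seen as a drop in luminescence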
[5] = CEM21 lymphoblast cell cytotoxicity, dose response, cytotoxicity control for viral fusion inhibitor project, CellTiter-Glo luminescence, cherry-picked (AID 652042); format: functional, cell-based;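 also: potency for signal decrease meaning cytotoxicity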
[6] = P. falciparum Dd2 growth inhibitors, dose response, SYBR Green, dry powder samples, set 9 (AID 1159568); format: functional, cell-based
Paired box protein Pax-8 = Paired box protein Pax-8 (Homo sapiens, UniProt Q06710); experiment: inhibitors of PAX8-driven TPO luciferase reporter, dose response, RMG-I cells, cherry-pick (AID 687027); format: functional, cell-based;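 also: luciferase reporter driven by Pax8 target thyroperoxidase promoter measured by SteadyGlo luminescence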
[7] = NIH:OVCAR-3 ovarian cancer cell cytotoxicity, dose response, PAX8 inhibitor project, plate reader, dry powder samples (AID 743044); format: functional, cell-based
[8] = IGROV1 ovarian cancer cell cytotoxicity, dose response, PAX8 inhibitor project, plate reader, dry powder samples (AID 743043); format: functional, cell-based; settings: IGROV-1
[9] = cytotoxicity in OVCAR8 ovarian cancer cells, dose response, PAX8 project, cell-based, plate reader, dry powder samples (AID 743197); format: functional; settings: OVCAR-8
[10] = target: T1, Histone-lysine N-methyltransferase NSD2 (Homo sapiens, UniProt O96028); format: biochemical
T1 sequence (O96028 whole entry): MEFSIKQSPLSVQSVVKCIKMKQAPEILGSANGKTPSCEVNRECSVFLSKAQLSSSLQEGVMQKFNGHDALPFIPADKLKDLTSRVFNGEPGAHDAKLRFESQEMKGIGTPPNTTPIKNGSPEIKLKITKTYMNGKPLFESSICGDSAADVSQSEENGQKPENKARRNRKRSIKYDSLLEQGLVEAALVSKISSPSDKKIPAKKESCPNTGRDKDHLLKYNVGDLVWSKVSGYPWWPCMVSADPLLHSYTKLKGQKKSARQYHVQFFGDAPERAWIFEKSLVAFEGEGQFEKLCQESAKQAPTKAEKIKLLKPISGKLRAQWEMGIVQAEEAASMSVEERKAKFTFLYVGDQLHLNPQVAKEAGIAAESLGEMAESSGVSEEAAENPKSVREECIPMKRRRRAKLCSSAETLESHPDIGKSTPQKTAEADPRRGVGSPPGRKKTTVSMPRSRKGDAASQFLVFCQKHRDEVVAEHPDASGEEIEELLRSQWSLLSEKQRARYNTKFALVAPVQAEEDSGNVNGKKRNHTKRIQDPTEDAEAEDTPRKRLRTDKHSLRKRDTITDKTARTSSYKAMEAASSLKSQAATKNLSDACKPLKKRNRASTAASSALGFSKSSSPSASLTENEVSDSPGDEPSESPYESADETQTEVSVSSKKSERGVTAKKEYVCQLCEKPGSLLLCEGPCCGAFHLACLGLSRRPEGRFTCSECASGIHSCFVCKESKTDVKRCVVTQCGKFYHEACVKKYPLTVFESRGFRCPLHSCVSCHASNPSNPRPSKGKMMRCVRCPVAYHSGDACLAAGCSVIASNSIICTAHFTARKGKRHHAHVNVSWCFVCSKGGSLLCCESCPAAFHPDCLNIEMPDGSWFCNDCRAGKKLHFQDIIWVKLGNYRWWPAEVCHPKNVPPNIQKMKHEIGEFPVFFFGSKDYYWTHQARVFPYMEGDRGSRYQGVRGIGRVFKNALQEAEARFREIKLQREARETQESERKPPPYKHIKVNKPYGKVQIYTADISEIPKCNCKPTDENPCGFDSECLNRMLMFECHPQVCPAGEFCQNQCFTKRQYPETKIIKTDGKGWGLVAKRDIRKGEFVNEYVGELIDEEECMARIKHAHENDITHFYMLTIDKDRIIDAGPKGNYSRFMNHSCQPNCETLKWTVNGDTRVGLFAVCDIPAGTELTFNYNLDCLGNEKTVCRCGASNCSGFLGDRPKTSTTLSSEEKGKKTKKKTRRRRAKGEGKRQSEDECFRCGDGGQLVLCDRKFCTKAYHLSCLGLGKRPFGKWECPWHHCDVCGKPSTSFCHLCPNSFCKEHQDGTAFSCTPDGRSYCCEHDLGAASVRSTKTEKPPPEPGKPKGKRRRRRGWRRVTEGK

H9c2 = experiment: cells; format: functional, cell-based; settings: Rattus norvegicus, H9c2, Myocardium
[11] = inhibitors of PGC1a acetylation in cells, dose response, cell-based, cherry-picked samples (AID 720514); format: functional;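 also: potency may reflect raised or lowered acetylation signal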
[12] = cytotoxicity in HEK-293T cells, dose response, cytotoxicity control for BCR NF-kB inhibitor project, luminescence, B-cell screen hits (AID 489021); format: functional, cell-based;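 also: HEK-293T cells carrying an NF-kB luciferase reporter; cells exposed to compound for about 14 hours before viability readout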
Major prion protein = Major prion protein (Homo sapiens, UniProt P04156); format: functional, cell-based
[13] = target: T2, Polyadenylate-binding protein 1 (Homo sapiens, UniProt P11940); experiment: PABP1 MLLE–PAM2 interaction inhibitors, dose response, miRNA deadenylation inhibitor project, biochemical, fluorescence polarization, Cy5-PAM2 peptide, secondary (AID 602260); format: functional; settings: read-out: IC50_Mean
[14] = target: Protein-tyrosine kinase 2-beta (Homo sapiens, UniProt Q14289);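 also: potency of inhibitors of PYK2 kinase phosphorylation of poly-GT substrate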
[15] = target: T2, Polyadenylate-binding protein 1; experiment: PABP1 MLLE–PAM2 binding inhibitor potency, dose response, biochemical, fluorescence polarization, FITC-PAM2 peptide (AID 602259); format: functional; settings: read-out: IC50_Mean
Caspase-6 = target: T3, Caspase-6 (Homo sapiens, UniProt P55212); experiment: human caspase-6 inhibitors, dose response, biochemical, VEID-R110 fluorescence, cherry-pick (AID 720632)
T3 sequence (P55212 whole entry): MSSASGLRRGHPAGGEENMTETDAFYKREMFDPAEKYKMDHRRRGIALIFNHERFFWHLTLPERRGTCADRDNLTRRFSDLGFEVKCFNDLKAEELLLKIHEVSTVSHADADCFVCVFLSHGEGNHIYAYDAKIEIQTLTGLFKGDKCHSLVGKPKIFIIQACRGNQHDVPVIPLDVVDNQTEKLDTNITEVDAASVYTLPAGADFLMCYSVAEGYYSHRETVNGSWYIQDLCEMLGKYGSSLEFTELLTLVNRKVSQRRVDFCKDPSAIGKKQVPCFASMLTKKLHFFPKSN

[16] = target: T4, Tyrosyl-DNA phosphodiesterase 2 (Homo sapiens, UniProt O95551); experiment: human TDP2 enzyme inhibitors, dose response, biochemical, epi absorbance, IC50 (AID 743297)
T4 sequence (O95551 whole entry): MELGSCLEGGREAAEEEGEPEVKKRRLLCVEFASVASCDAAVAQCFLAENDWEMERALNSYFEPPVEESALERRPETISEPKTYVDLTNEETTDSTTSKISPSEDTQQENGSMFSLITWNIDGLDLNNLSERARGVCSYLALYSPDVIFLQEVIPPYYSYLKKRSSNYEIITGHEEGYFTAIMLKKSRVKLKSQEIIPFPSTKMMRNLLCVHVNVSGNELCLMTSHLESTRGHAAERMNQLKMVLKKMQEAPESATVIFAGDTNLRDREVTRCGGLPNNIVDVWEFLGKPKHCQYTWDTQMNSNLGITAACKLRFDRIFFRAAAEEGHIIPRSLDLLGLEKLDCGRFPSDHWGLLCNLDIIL

[17] = LGR2 antagonists, dose response, cell-based, HEK293, CRE-luciferase reporter, cherry pick, set 2 (AID 743343); format: functional;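 also: transfected cells were stimulated with diluted bursicon conditioned medium after compound addition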
Cytochrome P450 3A4 = Cytochrome P450 3A4 (Homo sapiens, UniProt P08684); settings: Potency;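 also: confirmatory qHTS run detecting inhibitors and substrates of CYP3A4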
[18] = MC4R antagonists, dose response, counter-screen for LGR2 antagonist project, cell-based, plate reader, cherry pick (AID 743444); format: functional;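 also: transfected HEK 293 cells stimulated with alpha-MSH peptide; potency of inhibitors of the alpha-MSH evoked signal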
[19] = NIH-3T3 fibroblast cytotoxicity, dose response, cytotoxicity control, cell-based, fluorescence, Alamar Blue, secondary assay (AID 2327); format: functional;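 also: NIH-3T3 mouse fibroblasts cultured with fluconazole at 8 µg/mL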
[20] = target: T5, Zinc finger protein mex-5 (Caenorhabditis elegans, UniProt Q9XUB2); experiment: MEX-5/TCR-2 RNA interaction inhibitors, dose response, biochemical, C. elegans, fluorescence polarization (AID 1960)
T5 sequence (Q9XUB2 whole entry): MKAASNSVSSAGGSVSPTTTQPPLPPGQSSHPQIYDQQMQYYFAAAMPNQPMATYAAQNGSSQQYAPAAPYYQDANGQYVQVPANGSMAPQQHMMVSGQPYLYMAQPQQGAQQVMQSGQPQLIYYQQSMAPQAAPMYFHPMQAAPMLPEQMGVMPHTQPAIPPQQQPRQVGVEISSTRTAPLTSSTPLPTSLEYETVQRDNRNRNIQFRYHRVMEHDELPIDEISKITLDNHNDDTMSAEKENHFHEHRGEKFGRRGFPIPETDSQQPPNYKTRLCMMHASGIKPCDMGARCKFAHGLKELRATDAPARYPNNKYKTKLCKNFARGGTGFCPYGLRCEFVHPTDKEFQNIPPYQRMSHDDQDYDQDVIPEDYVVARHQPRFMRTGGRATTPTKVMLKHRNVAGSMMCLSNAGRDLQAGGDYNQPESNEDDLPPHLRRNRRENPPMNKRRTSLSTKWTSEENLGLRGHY

[21] = C. albicans growth with fluconazole, confirmation, fluorescence, retest (AID 2467); format: functional, cell-based
Large T antigen = Large T antigen (Simian virus 40, UniProt P03070); format: functional, Betapolyomavirus macacae;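 also: Confirmatory-stage PubChem screen for compounds that inhibit SV40 T antigen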
[22] = target: T6, RNA-binding protein pos-1 (Caenorhabditis elegans, UniProt G5EF15); experiment: inhibitors of POS-1/mex-3 RNA binding, dose response, biochemical, fluorescence polarization (AID 1964);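 also: purified POS-1 fused to maltose binding protein made in E. coli; potency of compounds blocking POS-1 binding to fluorescent RNA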
T6 sequence (G5EF15 whole entry): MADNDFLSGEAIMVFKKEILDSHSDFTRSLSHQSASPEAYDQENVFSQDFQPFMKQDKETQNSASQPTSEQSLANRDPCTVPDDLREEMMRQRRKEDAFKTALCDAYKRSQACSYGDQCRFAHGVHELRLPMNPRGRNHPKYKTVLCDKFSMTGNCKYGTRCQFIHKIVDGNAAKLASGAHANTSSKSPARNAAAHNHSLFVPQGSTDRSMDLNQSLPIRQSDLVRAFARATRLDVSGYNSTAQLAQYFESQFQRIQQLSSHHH

## CCOC(=O)N1CCN(C(=O)C[C@H]2C[C@@]3(C(=O)OC)C(=C[C@H](C(C)(C)C)O[C@@H]3C)N(CCC3=CCCCC3)C2=O)CC1
[1]
  AC50: 2.49 µM (active)
[2]
  AC50: 4.21 µM (active)
[3]
  AC50: 3.45 µM (active)
[4]
  AC50: 3.46 µM (active)
[5]
  AC50: 25.6 µM (active)

## N#C[C@@H]1[C@H](c2ccccc2C2=CCCC2)[C@H](CO)N1C(=O)C1CCOCC1
[6]
  AC50: > 39 µM (inactive)

## C[C@@H]1CCCCO[C@H](CN(C)S(=O)(=O)c2ccc(F)cc2)[C@@H](C)CN([C@@H](C)CO)C(=O)c2cc(N(C)C)ccc2O1
[6]
  AC50: 2.17 µM (active)

## COc1ccccc1NC(=O)N1CCCCN2[C@@H](CO)[C@@H](c3ccc(C#Cc4ccccc4)cc3)[C@@H]2C1
Paired box protein Pax-8
  AC50: 4.9 µM (active)
[7]
  AC50: 19.3 µM (active)
[8]
  AC50: 39 µM (active)
[9]
  AC50: 35 µM (active)

## O=C1NC(=S)NC(=O)C1=NNc1cc(S(=O)(=O)Nc2ccc(Cl)cc2)ccc1Cl
[10]
  AC50: > 20 µM (inactive)

## COc1ccc(C(=O)Nc2cccc(NC(=O)c3ccc(OC)c(OC)c3)n2)cc1OC
H9c2
  IC50: > 79 µM (inactive)
[11]
  AC50: 7.99 µM (active)
[12]
  IC50: > 80 µM (inactive)

## Cc1cc(SC(C)C(=O)O)nc2ccccc12 (stereo not given)
Major prion protein
  IC50: 8.85 µM (active)
cells
  IC50: > 138 µM (inactive)

## Cc1nnc(NC(=O)CSc2nc(C(C)C)nc3ccccc23)s1
[13]
  IC50: > 66 µM (inactive)
[14]
  IC50: > 69.5 µM (not active)
[15]
  IC50: > 66 µM (inactive)
Major prion protein
  IC50: 1.83 µM (active)
cells
  IC50: > 138 µM (inactive)

## C[C@H]1CCCCO[C@@H](CN(C)Cc2ccc(C(F)(F)F)cc2)[C@@H](C)CN([C@@H](C)CO)C(=O)c2cc(NS(=O)(=O)c3ccc(F)cc3)ccc2O1
Paired box protein Pax-8
  AC50: 6.82 µM (active)
[7]
  AC50: 34.2 µM (active)
[8]
  AC50: 39.4 µM (active)
[9]
  AC50: 51.3 µM (active)

## O=C(Nc1c(-c2ccc3c(c2)OCO3)[nH][nH]c1=O)c1ccccc1
Caspase-6
  AC50: 47.5 µM (active)
[16]
  IC50: 9.43 µM (active)

## COc1ccc(/C=C/C(=O)Nc2ccccc2C(=O)O)cc1OC
[17]
  AC50: 0.587 µM (active)
Cytochrome P450 3A4
  AC50: 10 µM (inconclusive)
[18]
  AC50: 0.594 µM (active)

## CCOc1cc(/C=C2\C(=O)NN(c3ccccc3)C2=O)cc([N+](=O)[O-])c1O
[19]
  EC50: > 160 µM (inactive)
[20]
  EC50: 36.2 µM (active)
Caspase-6
  AC50: 36.8 µM (active)
[10]
  AC50: > 20 µM (inactive)
[21]
  EC50: > 38 µM (not active)
Large T antigen
  IC50: > 100 µM (active)
[22]
  EC50: 129 µM (active)

## C[C@@H]1CCCCO[C@@H](CN(C)C(=O)Nc2cccc3ccccc23)[C@H](C)CN([C@@H](C)CO)C(=O)c2cc(NC(=O)CCC(F)(F)F)ccc2O1
[6]
  AC50: 6.54 µM (active)

## CCOc1ccc2nc(NCCNC(=O)Nc3ccccc3)c(C#N)cc2c1
[11]
  AC50: 19.5 µM (active)

Source: ChEMBL document CHEMBL1201862, “PubChem BioAssay data set” (2004)
